This note sets out measurements from US9913830B2, “Materials and methods for modulating immune responses” (UNIVERSITY OF FLORIDA RESEARCH FOUNDATION, INCORPORATED, priority 2011, dated 2018).

For one experiment, the system named is NOD mice. The experiment is described as follows: Onset of diabetes in NOD mice, blood glucose monitoring. The experiment is classed as in vivo. As to conditions: 8-week old NOD mice, 65 mg/kg i.p., three times a week for five weeks, monotherapy. The method, then:
Briefly, 8-week old NOD mice are injected (i.p.) with various doses of cilostamide (low: 0.65 mg/kg, medium: 6.5 mg/kg, high: 65 mg/kg), or vehicle only. Cilostamide is administered three times a week for five weeks. The onset of diabetes in treated mice is monitored by blood glucose measurements. Diabetes is diagnosed if the blood glucose readings are greater than 240 mg/dl for two days.
The increase in level of FoxP3+ cells at an early stage of the autoimmune attack can be used to prevent or delay the onset of autoimmune disease. Briefly, 8-week old NOD mice are treated with various doses (low: 0.65 mg/kg; medium: 6.5 mg/kg; high: 65 mg/kg) of cilostamide via intraperitoneal (i.p.) injection. Cilostamide is administered to the mice three times a week for five weeks.

In a further experiment the test system is naïve human CD4+ T cells. Kind of experiment: FOXP3 induction in naïve CD4+ T cells, flow cytometry. The experiment is classed as cell-based. How it is done:
Freshly isolated naïve (CD4+ CD25− CD127hi CD45RO−) T cells are cultured and treated with PDE3b and PDE4 inhibitors (middle panel) or rapamycin (positive control) (right panel), or are left untreated (left panel). CD25 and FOXP3 expression is measured by flow cytometry after 14 days of expansion.
Treatment of Tregs with small molecules that maintain high cAMP levels in T cells can be used to induce a regulatory phenotype. Small molecules that maintain high cAMP levels in T cells include agents that inhibit PDEs and agents that activate AC.
For orientation: In flow cytometry, cells or beads pass a laser one at a time.

`CN(C(=O)CCCOc1ccc2[nH]c(=O)ccc2c1)C1CCCCC1` [cilostamide]: the onset of diabetes result in the experiment with NOD mice was “delayed the onset of diabetes”. Also, the FOXP3 induction entry with naïve human CD4+ T cells (naïve CD4+ CD25− CD45RO− T cells, 14 days of expansion, vs non-treated controls) is “increased FOXP3 induction”. Further, the “ratio of FOXP3+ cells” value in the experiment with naïve human CD4+ T cells (naïve CD4+ T cells, 14 days, vs rapamycin positive control) is “comparable to that of the rapamycin-treated group”.
